Data: patent US20090047269A1, “METABOLOMIC CANCER TARGETS” (The Regents of the University of Michigan, priority 2007, published 2009)

How the values were obtained:
Type in all cases: cell-based
[1] = tested on: EGFR; test: Immunoblot analysis of EGFR phosphorylation and total EGFR; settings: for total EGFR levels upon treatment: prostate epithelial cells
[2] = tested on: immortalized benign RWPE prostate cells; test: Modified Boyden chamber matrigel invasion assay, RWPE cells; settings: for increased invasion upon sarcosine addition compared to control / induction of invasion upon exogenous addition: benign prostate epithelial cells; for increased invasion upon sarcosine addition compared to control: alanine as control
Method: To investigate the biological role of sarcosine elevation in prostate cancer, prostate cancer cell lines VCaP, DU145, 22RV1 and LNCaP and their benign epithelial counterparts, primary benign prostate epithelial cells PrEC and immortalized benign RWPE prostate cells were used.
To determine if sarcosine plays a role in this process, it was added directly to non-invasive benign prostate epithelial cells. Alanine (an isomer of sarcosine) was used as a control for these experiments. […] The present invention is not limited to a particular mechanism. Indeed, an understanding of the mechanism is not necessary to practice the present invention.
To understand the role of sarcosine in prostate cancer progression, levels of the metabolite was measured in a panel of prostate-derived cell lines. […] The knock down studies were carried out using specific siRNA and the extent of target inhibition was assessed using Q-PCR. The in vitro Boyden chamber assay was used to qualify the modulation in the invasiveness of the knock down cells.

[3] = tested on: p38MAPK; test: Immunoblot analysis of p38MAPK phosphorylation; settings: sarcosine-treated PrEC samples
From the text: (§1) Also total EGFR levels were elevated upon treatment with alanine or sarcosine. […] This observation was further strengthened using both antibody-mediated inhibition of EGFRactivity and siRNA-mediated knock-down of receptor levels.

[4] = tested on: src; test: Immunoblot analysis of src phosphorylation; settings: prostate epithelial cells (PrEC), compared to alanine-treated controls
From the text: as §1

[5] = RWPE cells, control non-target siRNA-transfected

CNCC(=O)O [sarcosine]
total EGFR levels upon treatment [1]: elevated
EGFR phosphorylation upon treatment ([1]; prostate epithelial cells (PrEC), compared to alanine-treated controls): time-dependent increase
increased invasion upon sarcosine addition compared to control ([2]; 25 μM): 1.64 fold
increased invasion upon sarcosine addition compared to control ([2]; 50 μM): 2.57 fold
invasion upon amino acid addition, mean±SEM ([2]; RWPE cells with GNMT knockdown): 0.64±0.07
invasion upon amino acid addition, mean±SEM [2, 5]: 0.65±0.05
induction of invasion upon exogenous addition [2]: imparted an invasive phenotype
p38MAPK phosphorylation upon treatment [3]: phosphorylation of p38MAPK
src phosphorylation upon treatment [4]: time-dependent increase

NCC(=O)O [glycine]
invasion upon amino acid addition, mean±SEM ([2]; RWPE cells with GNMT knockdown): 0.20±0.03
invasion upon amino acid addition, mean±SEM [2, 5]: 0.46±0.04
induction of invasion upon exogenous addition [2]: induced invasion in these cells, although to a lesser degree than sarcosine

C[C@H](N)C(=O)O [alanine, reference compound]
total EGFR levels upon treatment [1]: elevated
